Columns and labels:
[1] = system: human bladder carcinoma cell line RT112; assay: Rare sugar uptake experiment, sugar content in disrupted cell suspension of RT112; format: cell-based
Procedure: (§1) An uptake amount of a rare sugar, which had been added to a medium, into carcinoma cells was analyzed using the cell lines of three types of cancers. As the rare sugar, four kinds, that is, D-allose, D-allulose (D-psicose), L-allulose (L-psicose), and allitol were used, while D-glucose and fructose were used as a monosaccharide which was not a rare sugar.
(§2) Cells of each of the cell lines were cultured in RPMI-1640 media and during culturing, six sugars were each added to the resulting media and cultured. After culturing, an amount of each sugar taken up into the cells was analyzed. The medium to which no sugar was added during culturing was used as a control.
(§3) Used were human bladder carcinoma cell lines (RT112, 253), and J82), human prostatic carcinoma cell lines (LNCa, Du145, and PC-3), and human renal cell carcinoma cell lines (ACHN, Caki-I, and Caki-II).
(§4) After cells were cultured in RPMI-1640 (2000 mg D-glucose/L) media, the above monosaccharides and rare sugars were added to the resulting media, respectively. Described specifically, they were following seven combinations: RPMI-1640 alone (control), RPMI-1640+D-glucose, RPMI-1640+L-allulose, RPMI-1640+D-allulose, RPMI-1640+D-fructose, RPMI-1640+D-allose, and RPMI-1640+D-allitol. The final concentration of the sugar in the medium was adjusted to 10 mM and no sugar was added in the control.
(§5) Five-ml portions of a 3.0×10^4 cells/ml cell suspension prepared using RPMI-1640 were seeded in dishes having a diameter of 6 cm (1.5×10^5 cells/dish) and cultured for 24 hours in the RPMI-1640 medium containing 2000 mg/l of D-glucose as a nutrient source. Twenty-four hours later, the media were changed to the culture solutions containing the monosaccharides and rare sugars described above in 2), respectively, followed by culturing for 48 hours.
(§6) After culturing for 48 hours, the attached human carcinoma cells were mechanically separated and collected in a Spitz tube together with the culture solution and floating cells. After the supernatant formed by centrifugation (4° C., 1200 rpm, and 5 minutes) was removed to obtain cell pellets alone, 5 ml of a phosphate buffer physiological saline (PBS) was added for the purpose of washing to obtain a cell suspension of the cell pellets. A gain, the resulting cell suspension was centrifuged at 4° C. and 1200 rpm for 5 minutes and the supernatant was removed. To the cell pellets after washing was added 1 ml of pure water to suspend them therein. Ultrasonic disruption (intensity: 40%, 30 seconds) was then performed and the monosaccharide in the disrupted cell suspension was labeled with ABEE, followed by analysis by HPLC. From the area thus obtained, the sugar content in the cells was determined using a calibration curve. With respect to the ketose, two peaks were found after labeling with ABEE so that the sugar content in the cells was determined from the calibration curves of both peaks.

kidney tissue = assay: Kidney tissue histology in renal cell carcinoma xenograft mouse models; format: in vivo; conditions: xenograft mice, intraperitoneal once a day, day 35; diagnosis by a medical specialist in pathology; FIG. 7
Procedure: (§7) The day when the tumor size of the renal cell carcinoma xenograft mouse models became 200 mm^3 or more was called day 0 and the intraperitoneal injection of a D-allose-containing solution was started from day 1. The solution injected is 0.4 mL of physiological saline or a solution obtained by dissolving 100 mg/kg or 400 mg/kg of D-allose in 0.4 mL physiological saline. The resulting solution was intraperitoneally injected into three groups of mice (Control, 100 mg/kg of D-allose, and 400 mg/kg of D-allose) once a day for 5 weeks in total. The body weight of the mice and the long and short diameters of the tumor were measured over time twice a week. It is to be noted that the tumor volume was obtained as a product of long diameter×short diameter×short diameter of the tumor×0.5. […]
(§8) The tissue of the excised tumor, kidney, and liver was fixed with a 4% paraformaldehyde phosphate buffer, embedded with paraffin, and sliced into a 4-μm thick section. The resulting sliced section was stained with hematoxylin and eosin and evaluated by a medical specialist in pathology. The influence of D-allose on the tumor tissue was evaluated by a necrosis area (%) and an image of the number of nuclear fissions (Cells/HPF). It is to be noted that the necrosis area was measured using an image recording software Nikon NIS—Elements D and figures after the decimal point were omitted. […]

liver tissue = assay: Liver tissue histology in renal cell carcinoma xenograft mouse models; format: in vivo; conditions: xenograft mice, intraperitoneal once a day, day 35; diagnosis by a medical specialist in pathology; FIG. 8
Procedure: as §7, §8

[2] = system: human renal cell carcinoma cell line Caki-I; assay: Rare sugar uptake experiment, sugar content in disrupted cell suspension of Caki-I; format: cell-based
Procedure: as §1, §2, §3, §4, §5, §6

ACHN tumor tissue = assay: Tumor tissue histology (necrosis area, nuclear fission), ACHN xenograft mouse model; format: in vivo, mice; conditions: day 35
Procedure: The experiment of the present example used two human renal cell carcinoma cell lines (Caki-I and ACHN). Each cell was cultured under the wet environment of 37° C. and 5% CO2 by using a RPMI-1640 culture solution (2000 mg D-glucose/L) containing a 10% fetal calf serum, a HEPES buffer, and penicillin-streptomycin.
With respect to a renal cell carcinoma xenograft mouse model, a 1.0×10^5 cells/ml of a cell suspension was obtained by adjusting the cultured cells with a MEM culture solution and then 0.1 ml of the resulting suspension was injected into the femoral subcutaneous tissue of Female athymic nude mice (BALB/c-nu/nu, 6-week-old). After checking that the tumor volume was 200 mm^3 or more one week after the injection, the mice were provided for the experiment thereafter.
The day when the tumor size of the renal cell carcinoma xenograft mouse models became 200 mm^3 or more was called day 0 and the intraperitoneal injection of a D-allose-containing solution was started from day 1. The solution injected is 0.4 mL of physiological saline or a solution obtained by dissolving 100 mg/kg or 400 mg/kg of D-allose in 0.4 mL physiological saline. The resulting solution was intraperitoneally injected into three groups of mice (Control, 100 mg/kg of D-allose, and 400 mg/kg of D-allose) once a day for 5 weeks in total. The body weight of the mice and the long and short diameters of the tumor were measured over time twice a week. It is to be noted that the tumor volume was obtained as a product of long diameter×short diameter×short diameter of the tumor×0.5. On day 35 after the intraperitoneal injection was started, the tumor as well as the liver and kidney were excised from the mice and provided for the experiment performed thereafter.
The tissue of the excised tumor, kidney, and liver was fixed with a 4% paraformaldehyde phosphate buffer, embedded with paraffin, and sliced into a 4-μm thick section. The resulting sliced section was stained with hematoxylin and eosin and evaluated by a medical specialist in pathology. The influence of D-allose on the tumor tissue was evaluated by a necrosis area (%) and an image of the number of nuclear fissions (Cells/HPF). It is to be noted that the necrosis area was measured using an image recording software Nikon NIS—Elements D and figures after the decimal point were omitted. On the other hand, the number of nuclear fissions was obtained as an average of those of three fields of view and figures after the decimal point were also omitted. The anti-tumor effect of D-allose, more specifically, necrosis area and the number of nuclear fissions in the renal cell carcinoma xenograft mouse model are shown in Table 10.

[3] = system: human bladder carcinoma cell line 253J; assay: Rare sugar uptake experiment, sugar content in disrupted cell suspension of 253J; format: cell-based
Procedure: as §1, §2, §3, §4, §5, §6

[4] = system: human bladder carcinoma cell line J82; assay: Rare sugar uptake experiment, sugar content in disrupted cell suspension of J82; format: cell-based
Procedure: as §1, §2, §3, §4, §5, §6

[5] = 100 mg/kg intraperitoneal once a day
[6] = 400 mg/kg intraperitoneal once a day

Structure (SMILES): O=C[C@H](O)[C@H](O)[C@H](O)[C@H](O)CO [D-allose]
- D-glucose content in cell ([1]; RT112, named sugar added to RPMI-1640 at 10 mM, 48 hours, HPLC after ABEE labeling): 9.7 µg
- Content in cell of the added sugar ([1]; human, 48 h, 10 mM): 0.0 µg
- Influence on the kidney tissue (kidney tissue): No influence
- Influence on the liver tissue (liver tissue): No influence
- D-glucose content in cell ([2]; Caki-I, named sugar added to RPMI-1640 at 10 mM, 48 hours, HPLC after ABEE labeling): 2.1 µg
- Content in cell of the added sugar ([2]; human, 48 h, 10 mM): 13.2 µg
- Necrosis area (ACHN tumor tissue; [5]): 49%
- Nuclear fission (ACHN tumor tissue; [5]): 1.2 Cells/HPF
- Necrosis area (ACHN tumor tissue; [6]): 69%
- Nuclear fission (ACHN tumor tissue; [6]): 0.9 Cells/HPF
- D-glucose content in cell ([3]; 253J, named sugar added to RPMI-1640 at 10 mM, 48 hours, HPLC after ABEE labeling): 11.5 µg
- Content in cell of the added sugar ([3]; human, 48 h, 10 mM): 0.0 µg
- D-glucose content in cell ([4]; J82, named sugar added to RPMI-1640 at 10 mM, 48 hours, HPLC after ABEE labeling): 11.2 µg
- Content in cell of the added sugar ([4]; human, 48 h, 10 mM): 0.0 µg

Source: US20250249025A1, “DRUG DELIVERY CARRIER UTILIZING PROPERTY OF D-ALLOSE BEING UPTAKEN BY CANCER CELL, DRUG DELIVERY METHOD, AND COMPOSITION FOR TREATING RENAL CELL CARCINOMA” (NATIONAL UNIVERSITY CORPORATION KAGAWA UNIVERSITY, priority 2019, published 2025)
